Data taken from patent publication US20250230147A1, “LACTAMS AS CBL-B INHIBITORS” (Genentech, Inc., priority 2021, published 2025).
Counter-ions that a name gives are not always drawn.

Tests used:
c-Cbl = c-Cbl (Homo sapiens (Human), UniProt P22681); assay: C-Cbl LCK Ub TR-FRET assay (c-cbl Lck HTRF); assay type: biochemical; conditions: for (fold-selectivity): C-cbl Lck HTRF IC50 relative to Cbl-b Lck HTRF IC50
In short: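 After the ubiquitination reaction, detection mixture was added and plates incubated 20 min at room temperature before reading. IC50 values were calculated with wells lacking LCK as the low control and DMSO as the high control.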

Cbl-b = Cbl-b (Homo sapiens (Human), UniProt Q13191); assay: Cbl-b LCK Ub TR-FRET assay (Cbl-b Lck HTRF); assay type: biochemical
Sequence of Cbl-b (Q13191 40-426): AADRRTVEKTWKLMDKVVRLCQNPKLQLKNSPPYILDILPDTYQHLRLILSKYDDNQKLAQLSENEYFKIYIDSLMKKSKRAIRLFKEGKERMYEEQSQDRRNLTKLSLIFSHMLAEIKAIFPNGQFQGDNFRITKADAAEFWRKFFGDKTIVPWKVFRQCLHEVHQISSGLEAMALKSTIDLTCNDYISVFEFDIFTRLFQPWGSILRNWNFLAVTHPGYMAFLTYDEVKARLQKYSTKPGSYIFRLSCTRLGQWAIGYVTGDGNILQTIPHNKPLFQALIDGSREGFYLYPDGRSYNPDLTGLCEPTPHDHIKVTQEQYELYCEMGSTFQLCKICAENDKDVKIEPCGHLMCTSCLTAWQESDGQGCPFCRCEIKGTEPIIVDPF
In short: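 Biotin-Cbl-b preincubated with compound (10-point 3-fold series) 60 min, then His-LCK with 1 mM ATP (2× mixture) added for 90 min at room temperature. Ubiquitination detected by TR-FRET using HA-ubiquitin/UBE2D2 adduct, anti-HA-D2 and streptavidin-Eu; IC50 normalised to no-LCK and DMSO controls.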

Sequence of c-Cbl (P22681 47-435): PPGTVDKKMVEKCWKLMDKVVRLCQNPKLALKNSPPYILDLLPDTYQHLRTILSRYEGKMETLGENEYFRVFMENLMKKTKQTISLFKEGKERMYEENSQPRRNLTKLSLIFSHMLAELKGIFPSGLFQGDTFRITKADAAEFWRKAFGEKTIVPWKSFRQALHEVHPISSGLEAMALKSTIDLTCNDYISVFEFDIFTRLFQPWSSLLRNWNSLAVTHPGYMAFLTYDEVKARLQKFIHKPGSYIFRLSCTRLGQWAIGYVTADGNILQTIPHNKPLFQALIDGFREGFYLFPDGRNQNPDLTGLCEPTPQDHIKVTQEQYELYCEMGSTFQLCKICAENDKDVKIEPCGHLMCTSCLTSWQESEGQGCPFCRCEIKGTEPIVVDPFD

Row | Compound | IC50 (c-Cbl) [nM] | IC50 (Cbl-b) [nM] | (fold-selectivity) (c-Cbl) | fold of selectivity (Cbl-b; Cbl-b over c-Cbl, Lck HTRF IC50) [x]
1 | CC(C)[C@H]1CN(C)CCN1Cc1cc2c(c(C(F)(F)F)c1)CN(c1cc(C3(Cc4nncn4C)COC3)cc(NC3CCCC3)n1)C2=O [Compound 297, (S)-2-(6-(cyclopentylamino)-4-(3-((4-methyl-4H-1,2,4-triazol-3-yl)methyl)oxetan-3-yl)pyridin-2-yl)-6-((2-isopropyl-4-methylpiperazin-1-yl)methyl)-4-(trifluoromethyl)isoindolin-1-one formate] | 8 | 9.1 |  | 
2 | C=CC1(O)CN(Cc2cc3c(c(C(F)(F)F)c2)CN(c2cccc(C4([C@H](F)c5nncn5C)COC4)c2)C3=O)C1 [Compound 170, (S)-2-(3-(3-(fluoro(4-methyl-4H-1,2,4-triazol-3-yl)methyl)oxetan-3-yl)phenyl)-6-((3-hydroxy-3-vinylazetidin-1-yl)methyl)-4-(trifluoromethyl)isoindolin-1-one] | 360 | 140 | 2.5x | 
3 | Cn1cnnc1CC1(c2cccc(N3Cc4c(cc([C@@H](N)C5CC5)cc4C(F)(F)F)C3=O)c2)CC(F)(F)C1 [Compound 453, (S)-6-(amino(cyclopropyl)methyl)-2-(3-(3,3-difluoro-1-((4-methyl-4H-1,2,4-triazol-3-yl)methyl)cyclobutyl)phenyl)-4-(trifluoromethyl)isoindolin-1-one] | 18 | 14 | (1.4x) | 
4 | Cn1cnnc1[C@H](F)C1(c2cccc(N3Cc4c(cc(CNCCCF)cc4C(F)(F)F)C3=O)c2)COC1 [Compound 231, (R)-2-(3-(3-(fluoro(4-methyl-4H-1,2,4-triazol-3-yl)methyl)oxetan-3-yl)phenyl)-6-(((3-fluoropropyl)amino)methyl)-4-(trifluoromethyl)isoindolin-1-one] | 81 | 9.8 | (0.82x) | 
5 | CC(C)[C@H]1CN(C)CCN1Cc1cc2c(c(C(F)(F)F)c1)CN(c1cccc(C3(Cc4nncn4C)COC3)c1)C2=O [Compound 407, (S)-6-((2-isopropyl-4-methylpiperazin-1-yl)methyl)-2-(3-(3-((4-methyl-4H-1,2,4-triazol-3-yl)methyl)oxetan-3-yl)phenyl)-4-(trifluoromethyl)isoindolin-1-one] | 5.7 | 7.1 | (0.80x) | 
6 | COCC1(F)CN(Cc2cc3c(c(C(F)(F)F)c2)CN(c2cccc(C4([C@@H](F)c5nncn5C)COC4)c2)C3=O)C1 [Compound 135, (R)-2-(3-(3-(fluoro(4-methyl-4H-1,2,4-triazol-3-yl)methyl)oxetan-3-yl)phenyl)-6-((3-fluoro-3-(methoxymethyl)azetidin-1-yl)methyl)-4-(trifluoromethyl)isoindolin-1-one] | 180 | 96 | 1.9x | 
7 | CC(C)[C@H]1CN(C2COC2)CCN1Cc1cc2c(c(C(F)(F)F)c1)CN(c1cccc(C3([C@H](F)c4nncn4C)COC3)c1)C2=O [Compound 199, 2-(3-(3-((S)-fluoro(4-methyl-4H-1,2,4-triazol-3-yl)methyl)oxetan-3-yl)phenyl)-6-(((S)-2-isopropyl-4-(oxetan-3-yl)piperazin-1-yl)methyl)-4-(trifluoromethyl)isoindolin-1-one] | 56 | 19 | 2.9x | 
8 | Cn1cnnc1[C@@H](F)C1(c2cccc(N3Cc4c(cc(CN5CC6(COC6)C5)cc4C(F)(F)F)C3=O)c2)COC1 [Compound 10, (S)-6-(2-oxa-6-azaspiro[3.3]heptan-6-ylmethyl)-2-(3-(3-(fluoro(4-methyl-4H-1,2,4-triazol-3-yl)methyl)oxetan-3-yl)phenyl)-4-(trifluoromethyl)isoindolin-1-one] | 1100 | 500 | 2.3x | 
9 | CC(C)[C@H]1CN(CC(F)(F)F)CCN1Cc1cc2c(c(C(F)(F)F)c1)CN(c1cccc(C3([C@H](F)c4nncn4C)COC3)c1)C2=O [Compound 201, 2-(3-(3-((S)-fluoro(4-methyl-4H-1,2,4-triazol-3-yl)methyl)oxetan-3-yl)phenyl)-6-(((S)-2-isopropyl-4-(2,2,2-trifluoroethyl)piperazin-1-yl)methyl)-4-(trifluoromethyl)isoindolin-1-one] | 3000 | 220 | 13 x | 13.6
10 | CCCNCc1cc2c(c(C(F)(F)F)c1)CN(c1cc(NCC)cc(C3(Cc4nncn4C)CCC3)c1)C2=O [Compound 458, 2-(3-(ethylamino)-5-(1-((4-methyl-4H-1,2,4-triazol-3-yl)methyl)cyclobutyl)phenyl)-6-((propylamino)methyl)-4-(trifluoromethyl)isoindolin-1-one] | 15 | 23 | (0.66x) | 
11 | COCC1CCN(Cc2cc3c(c(C(F)(F)F)c2)CN(c2cccc(C4([C@H](F)c5nncn5C)COC4)c2)C3=O)CC1 [Compound 146, (S)-2-(3-(3-(fluoro(4-methyl-4H-1,2,4-triazol-3-yl)methyl)oxetan-3-yl)phenyl)-6-((4-(methoxymethyl)piperidin-1-yl)methyl)-4-(trifluoromethyl)isoindolin-1-one] | 480 | 430 | 1.1x | 
12 | Cn1cnnc1CC1(c2cc(OC3CCCC3)cc(N3Cc4c(cc(CNC5(C)CCC5)cc4C(F)(F)F)C3=O)c2)CC(F)(F)C1 [Compound 478, 2-(3-(cyclopentyloxy)-5-(3,3-difluoro-1-((4-methyl-4H-1,2,4-triazol-3-yl)methyl)cyclobutyl)phenyl)-6-(((1-methylcyclobutyl)amino)methyl)-4-(trifluoromethyl)isoindolin-1-one] | 160 | 82 | (2.0x) | 
13 | CCCC1(O)CN(Cc2cc3c(c(C(F)(F)F)c2)CN(c2cccc(C4([C@@H](F)c5nncn5C)COC4)c2)C3=O)C1 [Compound 171, (R)-2-(3-(3-(fluoro(4-methyl-4H-1,2,4-triazol-3-yl)methyl)oxetan-3-yl)phenyl)-6-((3-hydroxy-3-propylazetidin-1-yl)methyl)-4-(trifluoromethyl)isoindolin-1-one] | 82 | 49 | 1.7x | 
14 | C[C@H]1CN(C)CCN1Cc1cc2c(c(C(F)(F)F)c1)CN(c1cccc(C3(Cc4nncn4C)CC(F)(F)C3)c1)C2=O [Compound 214, (S)-2-(3-(3,3-difluoro-1-((4-methyl-4H-1,2,4-triazol-3-yl)methyl)cyclobutyl)phenyl)-6-((2,4-dimethylpiperazin-1-yl)methyl)-4-(trifluoromethyl)isoindolin-1-one] | 41 | 42 | 0.96x | 
15 | CC(C)Cc1cc(C2(Cc3nncn3C)CCC2)cc(N2Cc3c(cc(CNC4(C)CCC4)cc3C(F)(F)F)C2=O)n1 [Compound 342, 2-(6-isobutyl-4-(1-((4-methyl-4H-1,2,4-triazol-3-yl)methyl)cyclobutyl)pyridin-2-yl)-6-(((1-methylcyclobutyl)amino)methyl)-4-(trifluoromethyl)isoindolin-1-one formate] | 7.9 | 11 |  | 
16 | Cn1cnnc1CC1(c2cccc(N3Cc4c(cc(CNC5(C)CCC5(C)C)cc4C(F)(F)F)C3=O)c2)CC(F)(F)C1 (stereo not shown) [Compound 355, 2-(3-(3,3-difluoro-1-((4-methyl-4H-1,2,4-triazol-3-yl)methyl)cyclobutyl)phenyl)-4-(trifluoromethyl)-6-(((1,2,2-trimethylcyclobutyl)amino)methyl) isoindin-1-one formate] | 9.1 | 14 |  | 
17 | CCN1CCN(Cc2cc3c(c(C(F)(F)F)c2)CN(c2cccc(C4([C@H](F)c5nncn5C)CC(F)(F)C4)c2)C3=O)[C@@H](C(C)C)C1 [Compound 461, 2-(3-(3,3-difluoro-1-((S)-fluoro(4-methyl-4H-1,2,4-triazol-3-yl)methyl)cyclobutyl)phenyl)-6-(((S)-4-ethyl-2-isopropylpiperazin-1-yl)methyl)-4-(trifluoromethyl)isoindolin-1-one] | 8.2 | 9.9 | (0.82x) | 
18 | CO[C@H]1CCN(Cc2cc3c(c(C(F)(F)F)c2)CN(c2cccc(C4([C@H](F)c5nncn5C)COC4)c2)C3=O)C1 [Compound 132, 2-(3-(3-((S)-fluoro(4-methyl-4H-1,2,4-triazol-3-yl)methyl)oxetan-3-yl)phenyl)-6-(((S)-3-methoxypyrrolidin-1-yl)methyl)-4-(trifluoromethyl)isoindolin-1-one] | 470 | 230 | 2.1x | 
19 | CC(C)[C@@H]1CN(Cc2cc3c(c(C(F)(F)F)c2)CN(c2cccc(C4(Cc5nncn5C)CC(F)(F)C4)c2)C3=O)CCN1C [Compound 438, (R)-2-(3-(3,3-difluoro-1-((4-methyl-4H-1,2,4-triazol-3-yl)methyl)cyclobutyl)phenyl)-6-((3-isopropyl-4-methylpiperazin-1-yl)methyl)-4-(trifluoromethyl)isoindolin-1-one] | 32 | 41 | (0.80x) | 
20 | COCC1(F)CN(Cc2cc3c(c(C(F)(F)F)c2)CN(c2cccc(C4([C@H](F)c5nncn5C)COC4)c2)C3=O)C1 [Compound 136, (S)-2-(3-(3-(fluoro(4-methyl-4H-1,2,4-triazol-3-yl)methyl)oxetan-3-yl)phenyl)-6-((3-fluoro-3-(methoxymethyl)azetidin-1-yl)methyl)-4-(trifluoromethyl)isoindolin-1-one] | 560 | 280 | 2.0x | 
